Assays:
[1] = target: T1, recombinant human Muscarinic M1 receptor (Homo sapiens, UniProt P11229); assay: Allosteric potency EC50 for Muscarinic M1 receptor, CHO pCRE-Luc reporter cell-based assay with EC20 of acetylcholine; conditions: CHO cells, human M1, luciferase reporter, in presence of EC20 of acetylcholine, 4 h
T1 sequence (P11229 1-460): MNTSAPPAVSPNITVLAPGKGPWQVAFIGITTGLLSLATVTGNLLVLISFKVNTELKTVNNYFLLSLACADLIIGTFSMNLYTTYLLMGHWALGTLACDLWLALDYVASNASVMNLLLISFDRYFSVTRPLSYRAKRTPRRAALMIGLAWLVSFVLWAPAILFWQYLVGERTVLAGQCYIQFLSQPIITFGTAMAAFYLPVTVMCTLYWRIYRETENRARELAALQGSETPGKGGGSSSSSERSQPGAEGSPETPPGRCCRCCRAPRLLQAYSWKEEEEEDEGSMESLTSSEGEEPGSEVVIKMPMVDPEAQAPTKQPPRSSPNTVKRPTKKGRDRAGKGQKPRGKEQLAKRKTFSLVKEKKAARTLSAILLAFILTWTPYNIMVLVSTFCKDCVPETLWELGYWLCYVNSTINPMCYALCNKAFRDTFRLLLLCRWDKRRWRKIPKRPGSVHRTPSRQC
Procedure: Determination of allosteric potency EC50 values for Muscarinic M1 receptor:
A stable CHO cell line expressing recombinant human Muscarinic M1 receptor and pCRE-Luc reporter system was used for cell-based assay. The assay offers a non-radioactive based approach to determine binding of a compound to GPCRs. In this specific assay, the level of intracellular cyclic AMP which is modulated by activation or inhibition of the receptor is measured. The recombinant cells harbor luciferase reporter gene under the control of cAMP response element.
The above cells were grown in 96 well clear bottom white plates in Hams F12 medium containing 10% fetal bovine serum (FBS). Prior to the addition of compounds or standard agonist, cells were serum starved overnight. Increasing concentrations of test compounds were added along with EC20 of acetylcholine in OptiMEM medium to the cells. The incubation was continued at 37° C. in CO2 incubator for 4 h. Medium was removed and cells were washed with phosphate buffered saline. The cells were lysed and luciferase activity was measured in a Luminometer. Luminescence counts in each concentrations of test item were normalized to the acetylcholine induced maximum response and the data was analyzed using Graphpad software. EC50 values of the compounds were defined as the concentration required in stimulating the luciferase activity by 50% in presence of EC20 of acetylcholine.

[2] = Rodent brain penetration study; type: in vivo, Male Wistar rats; conditions: male, Wistar, brain and plasma, po; rat, 3 mg/kg, p.o. @ 1.0 hr, brain-plasma ratio; read-out: Single dose Rat Brain Penetration (Cb/Cp)
Procedure: Rodent Brain Penetration Study
Male Wistar rats (260±40 grams) were used as experimental animals. Three animals were housed in each cage. Animals were given water and food ad libitum throughout the experiment and maintained on a 12 h light/dark cycle.
Brain penetration was determined in discrete manner in rats. One day prior to dosing day, male Wistar rats were acclimatized and randomly grouped according to their weight. At each time point (0.5, 1 and 2 h) n=3 animals were used.
The test compounds were suitably preformulated and administered orally at (free base equivalent) 3 mg/kg. Blood samples were removed via cardiac puncture by using isoflurane anesthesia. The animals were sacrificed to collect brain tissue. Plasma was separated and brain samples were homogenized and stored frozen at −20° C. until analysis. The concentrations of the test compounds in plasma and brain were determined using LC-MS/MS method.
The test compounds were quantified in plasma and brain homogenate by qualified LC-MS/MS method using suitable extraction technique. The test compounds were quantified in the calibration range of 1-500 ng/mL in plasma and brain homogenate. Study samples were analyzed using calibration samples in the batch and quality control samples spread across the batch.

[3] = test system: Male Wistar rats; assay: Object recognition task model; type: in vivo; conditions: rat, p.o.; for Exploration time mean ± S.E.M, Familiar object / Exploration time mean ± S.E.M, Novel object: choice trial 24 h after T1
Procedure: Object Recognition Task Model
The cognition enhancing properties of compounds of this invention were estimated by using this model.
Male Wistar rats (8-10 weeks old) were used as experimental animals. Four animals were housed in each cage. Animals were kept on 20% food deprivation from a day prior to experimentation. Water was provided ad libitum throughout the experiment. Animals were maintained on a 12 h light/dark cycle in temperature and humidity controlled room. The experiment was carried out in circular arena made up of acrylic. Rats were habituated to individual arenas for up to 45 min in the absence of any objects on day 1.
One group of 12 rats received vehicle and another set of animals received compound of the formula (I), before the familiar (T1) and choice (T2) trials. During the familiarization phase, (T1), the rats were placed individually in the arena for 3 minutes, in which two identical objects (a1 and a2) were positioned 10 cm from the wall. 24 h after T1, trial for long-term memory test was performed. The same rats were placed in the same arena as they were placed in T1 trial. During the choice phase (T2) rats were allowed to explore the arena for 3 minutes in presence of a copy of familiar object (a3) and one novel object (b). During the T1 and T2 trial, explorations of each object (defined as sniffing, licking, chewing or having moving vibrissae whilst directing the nose towards the object at a distance of less than 1 cm) were recorded using stopwatch.
T1 is the total time spent exploring the familiar objects (a1+a2).
T2 is the total time spent exploring the familiar object and novel object (a3+b).
The object recognition test was performed as described by Ennaceur, A., Delacour, J., 1988, A new one-trial test for neurobiological studies of memory in rats—Behavioural data, Behav. Brain Res., 31, 47-59.

[4] = Rodent pharmacokinetic study; type: in vivo, Male Wistar rats; conditions: male, Wistar, rat, plasma; for bioavailability: oral 3 mg/kg vs i.v. 1 mg/kg, read-out: F (bioavailability)
Procedure: Rodent Pharmacokinetic Study
Male Wistar rats (260±50 grams) were used as experimental animals. Animals were housed individually in polypropylene cage. Two days prior to study, male Wistar rats were anesthetized with isoflurane for surgical placement of jugular vein catheter. Rats were randomly divided for oral (3 mg/kg) and intravenous (i.v) (1 mg/kg) dosing (n=3/group) and fasted overnight before oral dosing (p.o.). However, rats allocated to intravenous (i.v.) dosing food and water was provided ad libitum.
At pre-determined point, blood was collected through jugular vein and replenished with an equivalent volume of normal saline. Collected blood was transferred into a labelled eppendorf tube containing 10 μL of heparin as an anticoagulant. Typically blood samples were collected at following time points: 0.08, 0.25, 0.5, 1, 2, 4, 6, 8, and 24 h post dose. Blood was centrifuged at 4000 rpm for 10 minutes. Plasma was separated and stored frozen at −80° C. until analysis. The concentrations of the test compounds were quantified in plasma by qualified LC-MS/MS method using suitable extraction technique. The test compounds were quantified in the calibration range around 1-1000 ng/mL in plasma. Study samples were analyzed using calibration samples in the batch and quality control samples spread across the batch.
Pharmacokinetic parameters Cmax, Tmax (h), AUCt, T1/2, clearance and bioavailability (F) were calculated by non-compartmental model using standard non-compartmental model by using Phoenix WinNonlin 6.0.2 or 6.0.3 version Software package.

[5] = test system: hippocampal θ rhythm, anesthetized male Wistar rats; assay: Theta modulation in dorsal hippocampus of anesthetized rats in combination with donepezil; type: in vivo
Description: Male Wistar rats (240-320 g) were anesthetized by intraperitoneal administration of urethane (1.2 to 1.5 g/kg) for implantation of a catheter in the left femoral vein. The animal was placed in a stereotaxic frame for implanting an electrode (stainless steel wire, Plastics One) into the dorsal hippocampus (AP: −3.8 mm; ML: +2.2 mm; DV: −2.5 mm; Paxinos and Watson, 2004). Bipolar stimulating electrode (untwisted stainless steel wires, separated by 0.75-1.0 mm at their tips, Plastics One) was implanted in the Nucleus Pontis Oralis (NPO; AP: −7.8 mm; ML: 1.8 mm; DV: −6.0 mm; Paxinos and Watson, 2004). Additionally one electrode was implanted into the cerebellum which served as a reference. Hippocampal θ rhythm was evoked via a 6-s electrical stimulation train (20-160 PA, 0.3-ms pulse duration, 250 Hz) delivered to the NPO at a rate of 0.01 trains/s with a Grass S88 stimulator and PSIU6 stimulus isolation unit (Grass Medical Instruments, Quincy, Mass.). EEG was recorded at a rate of 1000 Hz using Ponemah (Version 5.2) software and stored for off-line analysis using NeuroScore (Version 3.0). Baseline amplitude level was achieved by using the current required to elicit 0 rhythm to 50% of the maximal amplitude under control conditions.
Power in the θ rhythm frequency in the stimulation period during the 30 min baseline period was calculated and the % changes in these measures post treatment were calculated. […] Statistical significance was considered at a p value less than 0.05.

| SMILES | EC50 [1] [nM] | Kp at 1 h [2] | AUC(0-t) ([4]; iv, i.v. 1 mg/kg) [ng·h/mL] | half-life ([4]; iv, i.v. 1 mg/kg) [h] | clearance ([4]; iv, i.v. 1 mg/kg) [mL/min/kg] | bioavailability [4] [%] | AUC(0-t) ([4]; oral 3 mg/kg) [ng·h/mL] | Cmax ([4]; oral 3 mg/kg) [ng/mL] | Tmax ([4]; oral 3 mg/kg) [h] | half-life ([4]; oral 3 mg/kg) [h] | other results |
| --- | --- | --- | --- | --- | --- | --- | --- | --- | --- | --- | --- |
| Cc1c(Cc2ccc(-c3cnn(C)c3)cc2F)cc(C(=O)N[C@H]2CCCC[C@@H]2O)c2ncccc12 [Example 11, N-(cis-1S,2S-2-Hydroxycyclohexyl)-6-[2-fluoro-4-(1-methyl-1H-pyrazol-4-yl)-benzyl]-5-methylquinoline-8-carboxamide] | 100 | 0.14 ± 0.01 | 12800 ± 2150 | 3.9 ± 0.2 | 1.3 ± 0.2 | 105 ± 25 | 40300 ± 9420 | 9690 ± 1420 | 1 to 2 | 4.8 ± 1.6 | Inference ([3]; 0.3 mg/kg): Active; Exploration time mean ± S.E.M, Familiar object ([3]; 0.3 mg/kg): 12.20 ± 1.89 s; Exploration time mean ± S.E.M, Novel object ([3]; 0.3 mg/kg): 17.33 ± 1.39 s; Mean area under the curve values (AUC) of θ power change compared with donepezil alone ([5]; Example 11 (1 mg/kg, i.v.) and donepezil (0.3 mg/kg, i.v.) vs donepezil alone): significantly higher compared to donepezil alone; effect on θ power of combination treatment compared with donepezil alone ([5]; Example 11 (1 mg/kg, i.v.) in combination with donepezil (0.3 mg/kg, i.v.) vs donepezil alone): significantly higher than the donepezil alone; θ power levels ([5]; Example 11 (1 mg/kg, i.v.) in combination with donepezil (0.3 mg/kg, i.v.), anesthetized rat): significant increase |
| Cc1c(Cc2ccc(-c3cnn(C)c3)cc2)cc(C(=O)N[C@H]2CCCC[C@@H]2O)c2ncccc12 [Example 15, N-(cis-1S,2S-2-Hydroxycyclohexyl)-6-[4-(1-methyl-1H-pyrazol-4-yl)-benzyl]-5-methylquinoline-8-carboxamide] | 197 | 0.78 ± 0.22 | 6860 ± 1810 | 3.1 ± 0.3 | 2.5 ± 0.6 | 40 ± 11 | 8190 ± 2180 | 1540 ± 397 | 2 | 3.7 ± 0.3 | Inference ([3]; 1 mg/kg): Active; Exploration time mean ± S.E.M, Familiar object ([3]; 1 mg/kg): 12.93 ± 1.83 s; Exploration time mean ± S.E.M, Novel object ([3]; 1 mg/kg): 20.42 ± 3.42 s |
| Cc1c(Cc2ccccc2)cc(C(=O)N[C@H]2CCCC[C@@H]2O)c2ncccc12 [Example 14, N-(cis-1S,2S-2-Hydroxycyclohexyl)-6-benzyl-5-methylquinoline-8-carboxamide] | 555 | 1.27 ± 0.07 | 346 ± 25 | 0.8 ± 0.1 | 48 ± 3.4 | 13 ± 2.7 | 137 ± 28 | 70 ± 23 | 0.5 | 1.9 ± 0.1 | Inference ([3]; 3 mg/kg): Active; Exploration time mean ± S.E.M, Familiar object ([3]; 3 mg/kg): 8.35 ± 1.98 s; Exploration time mean ± S.E.M, Novel object ([3]; 3 mg/kg): 15.54 ± 3.58 s |

From patent US11278530B2, “Polycyclic amides as muscarinic M1 receptor positive allosteric modulators” (SUVEN LIFE SCIENCES LIMITED, priority 2017, dated 2022)
